Assay results from patent US6806085B1, “2-deoxyglucose-6-phosphate (2-DOG-6-P) phosphatase DNA sequences as selection marker in plants” (IPK Gatersleben, priority 1997, dated 2004).

Key:
pea calli = experiment: Pea calli on 0.075% 2-DOG containing medium; type: cell-based, Pisum sativum
Excerpt: Calli of pea plants Pisum sativum were placed on 0.075% 2-DOG containing B5 medium. A: calllus of untransformed plant on 0.075% 2-DOG; B: callus of a plant expressing the DOG^R1 gene under the control of the 35S promoter on 0.075% 2-DOG. The construct described in Example 10 was transferred to pea plants of Pisum sativum by Agrobacteria-mediated transformation. Calli of transformed and untransformed plants were placed on 0.075% 2-DOG containing medium.

yeast cells = conditions: addition of 2-DOG; cited from earlier work
tobacco seedlings = experiment: Tobacco seedlings on 0.05% 2-DOG containing MS medium; type: in vivo, Nicotiana tabacum Var. Samsun NN; conditions: four weeks
Excerpt: Seeds of Nicotiana tabacum Var. Samsun NN were sterilized and placed on 0.05% 2-DOG containing MS medium. A: four weeks old seedlings of an untransformed plant; B: four weeks old seedlings of a plant expressing the DOG^R1 gene under the control of the 35S promoter. In order to detect the resistance of seedlings expressing the DOG^R1 gene seeds of the tobacco plants described in Examples 5 and 6 as well as seeds of untransformed tobacco plants were sterilized and placed on 0.05% 2-DOG containing MS medium.

[1] = test system: root growth of many plants; conditions: addition of 2-DOG; cited from earlier work
potato leaf disks = experiment: Toxicity of 2-DOG for plant cells, potato leaf pieces on 2-DOG-containing MS medium; type: cell-based, Solanum tuberosum var. Solara; conditions: MS medium with 0.01 to 0.5% 2-DOG, two weeks
Excerpt: (§1) FIGS. 2A and 2B Cultivation of tobacco (Nicotiana tabacum Var. Samsun NN, A-D) and potato (Solanum tuberosum var. Solara, E-H) leaf disks on 2-DOG-containing MS medium. A, E: control MS medium without addition of 2-deoxyglucose; B, F: MS medium with 0.05% 2-DOG; C, G:MS medium with 0.1% 2-DOG; D, H: MS medium with 0.5% 2-DOG. For the detection of the toxicity of 2-DOG leaf pieces (about 1 cm^2) of sterile tobacco and potato plants were cultivated for two weeks on Murashige and Skoog medium (Murashige & Skoog (1962) Physiol. Plant. 15, 473), to which 0.01 to 0.5% 2-DOG had been added.

tobacco leaf disks = experiment: Toxicity of 2-DOG for plant cells, tobacco leaf pieces on 2-DOG-containing MS medium; type: cell-based, Nicotiana tabacum Var. Samsun NN; conditions: MS medium with 0.01 to 0.5% 2-DOG, two weeks
Excerpt: as §1

Nicotiana tabacum cells = conditions: cited from earlier work
potato shoots = experiment: Potato shoots on 0.05% 2-DOG containing MS medium; type: in vivo, Solanum tuberosum var. Solara; conditions: five weeks
Excerpt: Shoots of potato plants Solanum tuberosum var. Solara were placed on 0.05% 2-DOG containing MS medium. A: five weeks old shoot of an untransformed plant; B: five weeks old shoot of a plant expressing the DOG^R1 gene under the control of the 35S promoter. The construct described in Example 3 was transferred to potato plants Solanum tuberosum var. Solara by Agrobacteria-mediated transformation. The regenerated shoots were cultivated on selection-free medium. After six weeks the tips of the shoots were transferred to 0.05% 2-DOG containing MS medium.

[2] = test system: Picea excelsa (spruce) cells; conditions: cited from earlier work

O=CC[C@@H](O)[C@H](O)[C@H](O)CO [2-DOG, 2-deoxyglucose]
shoot development from callus (pea calli; callus of untransformed plants): did not develop Shoots | shoot development from callus (pea calli; callus transformed with DOG^R1 gene under 35S promoter): developed shoots | respiration and growth of cells (yeast cells): inhibition of the respiration and the growth of cells | seedling survival (tobacco seedlings; seedlings expressing DOG^R1 gene under 35S promoter): vital | seedling survival (tobacco seedlings; seedlings of untransformed plants): died at an early stage of development | root growth [1]: inhibits the root growth | effect on leaf disks (potato leaf disks): caused the leaf disks to die | effect on leaf disks (tobacco leaf disks): caused the leaf disks to die | cell growth in tissue culture (Nicotiana tabacum cells): strongly inhibited | shoot growth (potato shoots; shoot expressing DOG^R1 gene under 35S promoter): exhibits root and stem growth | shoot growth (potato shoots; shoot of untransformed plant): has not grown | cell growth in tissue culture [2]: strongly inhibited
